From ChEMBL document CHEMBL5032522, “N-2-(phenylamino) benzamide derivatives as novel anti-glioblastoma agents: Synthesis and biological evaluation” (Eur J Med Chem, 2021)
Active and inactive are the calls of the source. The calls are words filed in the database; no cut-off is given here.

What was measured:
[1] = test system: U-87 MG; assay: Antiproliferative activity against human U-87 MG cells assessed as inhibition of cell growth measured after 72 hrs by CCK-8 assay; type: functional, cell-based, U-87MG ATCC
[2] = molecular target: T1, DNA topoisomerase 1 (Homo sapiens, UniProt P11387); assay: Inhibition of human topoisomerase I using DNA pBR322 as substrate assessed as DNA relaxation incubated for 45 mins by ethidium bromide staining based agarose gel electrophoresis
T1 sequence (P11387 whole entry): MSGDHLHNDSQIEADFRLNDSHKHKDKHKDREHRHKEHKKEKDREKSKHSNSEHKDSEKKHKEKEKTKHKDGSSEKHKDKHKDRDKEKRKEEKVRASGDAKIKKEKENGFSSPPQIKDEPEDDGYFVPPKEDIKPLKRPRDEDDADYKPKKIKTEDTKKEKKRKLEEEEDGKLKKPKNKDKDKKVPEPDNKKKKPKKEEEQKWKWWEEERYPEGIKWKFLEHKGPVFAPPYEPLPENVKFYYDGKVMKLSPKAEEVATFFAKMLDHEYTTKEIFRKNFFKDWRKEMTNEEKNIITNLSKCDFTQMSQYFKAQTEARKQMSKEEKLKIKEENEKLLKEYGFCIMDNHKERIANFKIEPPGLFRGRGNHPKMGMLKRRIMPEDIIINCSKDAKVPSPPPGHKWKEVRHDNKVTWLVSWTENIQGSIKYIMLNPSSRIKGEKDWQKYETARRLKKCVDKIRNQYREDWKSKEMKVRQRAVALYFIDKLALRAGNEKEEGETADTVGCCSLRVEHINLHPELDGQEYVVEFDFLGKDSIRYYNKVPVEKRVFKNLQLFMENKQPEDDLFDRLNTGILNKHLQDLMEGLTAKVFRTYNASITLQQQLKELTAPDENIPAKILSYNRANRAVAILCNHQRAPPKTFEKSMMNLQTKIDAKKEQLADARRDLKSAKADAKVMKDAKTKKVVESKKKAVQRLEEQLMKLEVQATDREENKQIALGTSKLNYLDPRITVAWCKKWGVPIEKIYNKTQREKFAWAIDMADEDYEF

[3] = molecular target: DNA topoisomerase 2-alpha (Homo sapiens) (UniProt P11388); assay: Inhibition of human topoisomerase 2 alpha using supercoiled DNA pBR322 as substrate assessed as DNA relaxation at 100 uM incubated for 30 mins by ethidium bromide staining based agarose gel electrophoresis
[4] = test system: U-251; assay: Antiproliferative activity against human U-251 cells assessed as inhibition of cell growth measured up to 72 hrs by CCK-8 assay; type: functional, cell-based; settings: time hrs <=72
[5] = test system: U-87 MG; assay: Inhibition of colony formation in human U-87 MG cells measured after 8 days by crystal violet staining based assay; type: functional, cell-based; settings: U-87MG ATCC, time 8.0 day
[6] = test system: U-251; assay: Inhibition of colony formation in human U-251 cells measured after 8 days by crystal violet staining based assay; type: functional, cell-based; settings: time 8.0 day
[7] = test system: U-87 MG; assay: Induction of cell cycle arrest in human U-87 MG cells assessed as accumulation of cells at G2/M phase incubated for 72 hrs by propidium iodide/RNase A staining based flow cytometry analysis; type: functional; settings: U-87MG ATCC
[8] = test system: U-251; assay: Induction of cell cycle arrest in human U-251 cells assessed as accumulation of cells at G2/M phase incubated for 72 hrs by propidium iodide/RNase A staining based flow cytometry analysis; type: functional
[9] = test system: U-251; assay: Induction of cell cycle arrest in human U-251 cells assessed as increase in G2 phase accumulation at 10 uM incubated for 72 hrs by propidium iodide/RNase A staining based flow cytometry (reference value: 20.88%); type: functional
[10] = test system: U-87 MG; assay: Induction of cell cycle arrest in human U-87 MG assessed as decrease in G0/G1 phase accumulation at 10 uM incubated for 72 hrs by propidium iodide/RNase A staining based flow cytometry; type: functional; settings: U-87MG ATCC
[11] = test system: U-251; assay: Inhibition of cell invasion in human U-251 cells incubated for 24 hrs by crystal violet staining based light microscopic analysis; type: functional
[12] = test system: U-251; assay: Inhibition of cell migration in human U-251 cells incubated for 24 hrs by crystal violet staining based light microscopic analysis; type: functional
[13] = Acute toxicity in Kunming mouse assessed as death at 1000 mg/kg, ip administered as single dose observed every day for 14 days; type: organism-based; settings: in vivo, 336 h, time 14 day
[14] = Acute toxicity in Kunming mouse assessed as death at 500 mg/kg, ip administered as single dose observed every day for 14 days; type: organism-based; settings: in vivo, 336 h, time 14 day
[15] = Acute toxicity in Kunming mouse assessed as death at 750 mg/kg, ip administered as single dose observed every day for 14 days; type: organism-based; settings: in vivo, 336 h, time 14 day
[16] = Tmax in Sprague-Dawley rat at 100 mg/kg, ip measured up to 24 hrs by LC-MS analysis; type: ADME, organism-based; settings: in vivo
[17] = AUC (0 to t) in Sprague-Dawley rat at 100 mg/kg, ip measured up to 24 hrs by LC-MS analysis; type: ADME, organism-based; parameters: route intraperitoneal, dose 100 mg/kg, time <=24; settings: in vivo
[18] = Drug concentration in Sprague-Dawley rat plasma at 100 mg/kg, ip measured 6 hrs post administration by LC-MS analysis; type: ADME, organism-based
[19] = Ratio of drug concentration in brain to plasma in Sprague-Dawley rat at 100 mg/kg, ip measured 6 hrs post administration by LC-MS/MS analysis; type: ADME, organism-based; settings: read-out: BPR
[20] = Toxicity in Sprague-Dawley rat inoculated with C6 cells assessed as reduction in body weight at 100 mg/kg, ip bid administered for 14 days; type: organism-based; settings: in vivo, 336 h, time 14 day
[21] = test system: U-87 MG; assay: Antiproliferative activity against human U-87 MG cells assessed as cell survival at <= 1.1 uM measured after 24 hrs by CCK-8 assay; type: functional, U-87MG ATCC; settings: dose microM <=1.1
[22] = test system: U-87 MG; assay: Induction of morphological changes in human U-87 MG cells assessed as membrane blebbing at 3.3 uM incubated for 72 hrs by Giemsa staining based light microscopic method; type: functional, cell-based; settings: U-87MG ATCC
[23] = molecular target: T2, Prostaglandin G/H synthase 2 (Homo sapiens) (UniProt P35354); assay: Inhibition of COX-2 in human U-87 MG cells assessed as inhibition of PGE2 production measured after 72 hrs; type: cell-based
T2 sequence (whole entry): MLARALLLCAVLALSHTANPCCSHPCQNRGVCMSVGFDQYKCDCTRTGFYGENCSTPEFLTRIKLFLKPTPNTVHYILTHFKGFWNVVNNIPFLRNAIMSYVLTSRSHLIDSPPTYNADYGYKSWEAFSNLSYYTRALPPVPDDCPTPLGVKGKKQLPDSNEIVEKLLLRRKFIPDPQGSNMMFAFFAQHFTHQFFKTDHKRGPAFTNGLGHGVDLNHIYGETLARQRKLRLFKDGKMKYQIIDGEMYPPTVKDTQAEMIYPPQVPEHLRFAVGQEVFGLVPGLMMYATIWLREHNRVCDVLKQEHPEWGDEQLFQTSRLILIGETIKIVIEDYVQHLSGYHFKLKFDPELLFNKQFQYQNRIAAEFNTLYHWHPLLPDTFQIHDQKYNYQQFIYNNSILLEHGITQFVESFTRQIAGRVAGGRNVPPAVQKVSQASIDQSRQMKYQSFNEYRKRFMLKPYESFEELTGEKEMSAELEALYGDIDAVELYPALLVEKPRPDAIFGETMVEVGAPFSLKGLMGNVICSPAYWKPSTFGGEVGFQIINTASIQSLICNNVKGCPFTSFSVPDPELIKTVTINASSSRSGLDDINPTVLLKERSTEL

Chain of DNA topoisomerase 2-alpha (Homo sapiens) (P11388 whole entry): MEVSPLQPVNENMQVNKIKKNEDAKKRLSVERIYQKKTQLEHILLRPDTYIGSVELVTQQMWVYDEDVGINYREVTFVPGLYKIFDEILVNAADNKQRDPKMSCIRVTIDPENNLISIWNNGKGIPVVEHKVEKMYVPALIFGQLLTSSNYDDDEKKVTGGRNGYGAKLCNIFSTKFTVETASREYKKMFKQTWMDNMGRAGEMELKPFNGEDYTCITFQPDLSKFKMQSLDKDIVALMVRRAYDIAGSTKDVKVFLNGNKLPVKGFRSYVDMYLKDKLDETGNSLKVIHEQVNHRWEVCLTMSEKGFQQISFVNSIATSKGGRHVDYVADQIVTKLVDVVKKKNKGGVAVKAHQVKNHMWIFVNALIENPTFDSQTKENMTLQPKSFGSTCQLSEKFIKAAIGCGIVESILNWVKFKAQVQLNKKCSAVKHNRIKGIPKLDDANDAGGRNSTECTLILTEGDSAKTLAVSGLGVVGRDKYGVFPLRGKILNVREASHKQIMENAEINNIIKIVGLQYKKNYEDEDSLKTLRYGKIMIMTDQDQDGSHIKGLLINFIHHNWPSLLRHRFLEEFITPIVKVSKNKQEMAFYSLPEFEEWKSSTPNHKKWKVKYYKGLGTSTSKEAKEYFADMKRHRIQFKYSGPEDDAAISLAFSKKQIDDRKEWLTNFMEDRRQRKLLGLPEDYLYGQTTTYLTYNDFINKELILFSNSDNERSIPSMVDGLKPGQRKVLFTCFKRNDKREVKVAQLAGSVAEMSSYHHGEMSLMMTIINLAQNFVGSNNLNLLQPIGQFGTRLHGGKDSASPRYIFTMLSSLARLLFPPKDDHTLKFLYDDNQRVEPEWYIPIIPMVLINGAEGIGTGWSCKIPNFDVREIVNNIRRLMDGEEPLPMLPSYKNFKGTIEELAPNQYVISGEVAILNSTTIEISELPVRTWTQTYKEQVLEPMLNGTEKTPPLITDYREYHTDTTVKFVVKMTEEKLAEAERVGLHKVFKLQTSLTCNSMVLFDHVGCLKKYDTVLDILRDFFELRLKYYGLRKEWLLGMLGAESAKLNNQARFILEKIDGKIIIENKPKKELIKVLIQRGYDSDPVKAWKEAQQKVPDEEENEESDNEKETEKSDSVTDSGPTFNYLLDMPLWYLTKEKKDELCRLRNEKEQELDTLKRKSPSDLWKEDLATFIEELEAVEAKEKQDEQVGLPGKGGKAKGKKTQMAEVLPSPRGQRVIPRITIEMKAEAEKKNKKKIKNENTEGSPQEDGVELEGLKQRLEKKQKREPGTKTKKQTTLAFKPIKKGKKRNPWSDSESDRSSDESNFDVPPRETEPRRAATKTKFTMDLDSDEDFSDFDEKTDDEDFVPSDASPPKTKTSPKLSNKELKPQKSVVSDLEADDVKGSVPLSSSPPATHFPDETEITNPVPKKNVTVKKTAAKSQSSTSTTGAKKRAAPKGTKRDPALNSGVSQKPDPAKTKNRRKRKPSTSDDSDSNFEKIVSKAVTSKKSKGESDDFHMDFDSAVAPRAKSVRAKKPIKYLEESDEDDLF

| Compound | IC50 [1] [µM] | IC50 [2] [µM] | inhibition [3] | Activity [4] | inhibition [5] | inhibition [6] | Activity [7] | Activity [8] | Activity [9] [%] | Activity [10] | inhibition [11] | inhibition [12] | Activity [13] | Activity [14] | Activity [15] | Tmax [16] [h] | AUC(0-t) at 24 h [17] [ng·h/mL] | concentration at 6 h [18] [ng/mL] | Kp at 6 h [19] | Activity [20] | also measured |
| --- | --- | --- | --- | --- | --- | --- | --- | --- | --- | --- | --- | --- | --- | --- | --- | --- | --- | --- | --- | --- | --- |
| Cc1c(Cl)cccc1Nc1ccccc1C(=O)Nc1ccc2c(c1)OCO2 | 6.46 | 47.6 | inactive | Dose-Dependent Effect | Dose-Dependent Effect | Dose-Dependent Effect | Dose-Dependent Effect | Dose-Dependent Effect | 74.64 | Active | Dose-Dependent Effect | Dose-Dependent Effect | Toxic | Non-Toxic | Non-Toxic | 3.33 | 46200 | 4990 | 0.29 | Non-Toxic | Survival [21]: >80%; Activity [22]: Active; inhibition [23]: Active |
| COc1ccc(NC(=O)c2ccccc2Nc2cccc(Cl)c2C)cc1 | 4.77 | 33.6 | inactive | Dose-Dependent Effect | Dose-Dependent Effect | Dose-Dependent Effect | Dose-Dependent Effect | Dose-Dependent Effect | 73.72 | Active | Dose-Dependent Effect | Dose-Dependent Effect | Toxic | Toxic | Non-Toxic | 3.33 | 78400 | 5790 | 0.65 | Non-Toxic | Survival [21]: >80%; Activity [22]: Active; inhibition [23]: Active |
